For one data set, the system named is MHC II b mRNA. Description: MHC IIb mRNA expression by RT-PCR in masseter muscle of intact female rats. The format is in vivo, rat. Here is the method:
Rat muscle tissue was harvested in 5 volumes of RNA later solution (Ambion, cat.# 7020) and stored at 4° C. until used for RNA isolation. Total RNA was isolated in the FastPrep FP120 instrument (Qbiogene) using RNAqueous-4PCR kit (Ambion, cat # 1914) in combination with FastRNA green tubes (Qbiogene, cat.# 6040-600) at settings for time at 45 sec and speed at 6.5.1 ug of total RNA was used for reverse transcription using Retroscript kit (Ambion, cat# 1710). The mixture was incubated at 42° C. for 60 min, followed by 10 min at 92° C., and then chilled on ice and used in PCR reaction.
Relatively quantitative RT-PCR was used to analyze expression of MHC mRNA in rat musculus masseter (MM) and levator ani (LA). As an internal standard 18S ribosomal RNA was used (QuantumRNA classic 18S Internal Standard, Ambion, cat.# 1716). Linear range of PCR reaction for all primers as well as optimal ratio of 18S primers to competitors to achieve the same level of amplification as the genes of interest was determined.
Primers were obtained from IDT based on the recently published design (Wright et al., J. Appl. Phys. 1997;83:1389), with the following sequence: 5′[…]3′. […]
5 units of Taq DNA polymerase (Roche, cat# 1146165), 200 μM of each dNTP (Invitrogen, cat.#R725-01), 0.2 μM each MHC primer (IDT), 1 μl of cDNA from reverse transcription reaction and 4 μl of 18S primers: competitors mixture were used in 50 μl PCR reaction. […] PCR products were analyzed by agarose gel electrophoresis [20-μl aliquots of a 50-μl PCR reaction loaded on a 1.5% agarose gel (in 1× Tris-Acetate-EDTA buffer) containing 0.2 μg/ml ethidium bromide] to visualize the PCR products. […] Pictures were scanned and the volume of the optical density (OD) of a DNA band was determined by the Image Quant software (Molecular Dynamics), and the background was subtracted (so local background was directly proportional to the amount of DNA over a wide range). […] The content of each experimental group MHC gene was calculated as a percentage of the MHC value in the control group (Table 2).

In the next data set the test system is levator ani. Description: Levator ani evaluation in androgen-treated intact female rats. The format is in vivo, rat. The conditions noted are these: 14 and 28 days treatment. An excerpt: In these same rats, the levator ani was dissected and evaluated for the expression pattern of MHC family members. […] Physiol. 75(5): 2337-2340, 1993].
A further data set has as its system prostate. Description: Androgenic activity: prostate weight in male rats. The format is in vivo, rat. The settings on record: male rats, from organ weights. An excerpt: (§1) Male Sprague-Dawley rats were purchased from Harlan Biosciences (Indianapolis, Ind.). […] One day before the initiation of drug treatment, groups 4 through 6 and groups 7 through 9 received unilateral or bilateral orchidectomy, respectively, via a midline scrotal incision. […] All drugs given to animals were freshly prepared as solutions in polyethylene glycol 300 (PEG 300). Groups 4 and 7 received treatment with vehicle alone (i.e., PEG 300). […] The ventral prostates, seminal vesicles, and levator ani muscle were removed and weighed. Osmotic pumps were also removed from animals to check for correct pump operation. […] Statistical analyses of parameters from complete blood count or serum chemical profiling, wherever applicable, were performed by single-factor ANOVA with the alpha value set a priori at p<0.05.

A further data set deals with seminal vesicles. The data set is described as follows: Androgenic activity: seminal vesicle weight in male rats. The format is in vivo, rat.
Source text: as §1

The subject of the next data set is levator ani muscle. Description: Anabolic activity: levator ani muscle weight in male rats. The format is in vivo, rat. The conditions noted are these: male rats, from organ weights.
Source text: as §1

Data set [1] in a line: Adverse pharmacologic effects in rats of varying hormonal status. The format is in vivo, rat. The settings on record: male rats, 0.5 mg/day, 14 days.
A further data set relates to FSH, LH and testosterone. Description: Plasma concentrations of FSH, LH and testosterone in treated male rats. The format is in vivo, rat. The settings on record: data not shown.
In a further data set the test system is MHC IIb mRNA. Description: MHC IIb mRNA expression in masseter and gastrocnemius muscle of intact male rats. The settings on record: TP 5 mg/kg/day, Compound V 1 mg/kg/day.
Where [2] appears, read: seminal vesicle, castrated rats, dose response 0.1-1.0 mg/day.

Values joined by “and” are separate entries in the source; they are usually repeats but may differ in a detail not shown here. Identical values can stand only once.

With `CC(=O)Nc1ccc(OC[C@](C)(O)C(=O)Nc2ccc([N+](=O)[O-])c(C(F)(F)F)c2)cc1` [Compound V], the “MHC IIb expression, % of untreated control” value in the data set with MHC II b mRNA is 124% and 124.5%. In addition, the “Presence of levator ani muscle after treatment” value with levator ani is recorded as “had a muscle present in the location expected for the levator ani”. In addition, the “Agonist character in prostate” value with prostate is recorded as “partial agonist”. In addition, the “Agonist character in seminal vesicles” value in the data set on seminal vesicles (male rats, from organ weights) is on record as “partial agonist”. Moreover, in the data set with seminal vesicles (setting [2]), the “ED50” value was 0.55 ± 0.02 mg/day and the “Emax (% of Intact Control)” value is listed as 28.5 ± 0.8 % of Intact Control. The “Agonist character in levator ani muscle” value in the data set with levator ani muscle is “full agonist”. Moreover, the Adverse pharmacologic effects entry in data set [1] is “No adverse pharmacologic effects were observed”. For the same compound, the “Changes in plasma concentrations of FSH, LH and testosterone” value in the data set on FSH, LH and testosterone is listed as “absence of any significant changes”. The “MHC type IIb transcription, % of untreated control” value with MHC IIb mRNA (gastrocnemius muscle) is 162(±54) %. In addition, the “MHC type IIb transcription, % of untreated control” value in the data set with MHC IIb mRNA (masseter muscle) was 117(±13) %.

The record behind these values is US7547728B2, “Treating muscle wasting with selective androgen receptor modulators” (priority 2001, dated 2009).
